# According to PubChem BioAssay (NCI):
#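 A five-concentration, 48-hour dose response in 96-well plates underlies each endpoint, interpolated linearly between surrounding concentrations. GI50: concentration for 50% inhibition of growth. TGI marks complete inhibition of growth.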
# Legend:
# Assay in all cases: NCI-60 cell line screen, 48 h
# M19-MEL melanoma = test system: M19-MEL melanoma
# LXFL 529 NSCLC = test system: LXFL 529 NSCLC
# HCT-15 colon = test system: HCT-15 colon
# DLD-1 colon = test system: DLD-1 colon
# DMS 273 small cell lung = test system: DMS 273 small cell lung
# XF 498 CNS = test system: XF 498 CNS
# DMS 114 small cell lung = test system: DMS 114 small cell lung
# RXF-631 renal = test system: RXF-631 renal
# KM20L2 colon = test system: KM20L2 colon
# SNB-78 CNS = test system: SNB-78 CNS
# HOP-18 NSCLC = test system: HOP-18 NSCLC
# T-47D breast = test system: T-47D breast
Structure (SMILES),TGI (M19-MEL melanoma) [µM],TGI (LXFL 529 NSCLC) [µM],TGI (HCT-15 colon) [µM],TGI (DLD-1 colon) [µM],TGI (DMS 273 small cell lung) [µM],TGI (XF 498 CNS) [µM],TGI (DMS 114 small cell lung) [µM],TGI (RXF-631 renal) [µM],TGI (KM20L2 colon) [µM],TGI (SNB-78 CNS) [µM],TGI (HOP-18 NSCLC) [µM],GI50 (M19-MEL melanoma) [µM],GI50 (SNB-78 CNS) [µM],GI50 (LXFL 529 NSCLC) [µM],GI50 (DLD-1 colon) [µM],GI50 (DMS 273 small cell lung) [µM],GI50 (KM20L2 colon) [µM],TGI (T-47D breast) [µM]
NC(N)=NS(=O)(=O)c1ccc(NCc2c3ccccc3[n+]([O-])c3ccccc23)cc1,> 100,80.5,74.4,> 100,> 100,–,56.6,–,> 100,> 100,52.3,–,–,–,–,–,–,–
COc1ccc(C(C#N)NNC(=O)c2ccccc2O)cc1OC (stereo unspecified),> 100,> 100,> 100,> 100,47.2,–,12.7,–,62.5,> 100,> 100,–,–,–,–,–,–,–
CCOC(=O)C1Cc2[nH]c3ccccc3c2C(C)C1C (stereo unspecified),–,57.1,32.1,34.5,30.4,37.9,58.5,–,31.8,62.4,–,–,–,–,–,–,–,–
O=C1OCc2c1cc1ccc(O)c(OC3OC(CO)C(O)C(O)C3O)c1c2-c1ccc2c(c1)OCO2 (stereo unspecified),> 100,> 100,> 100,–,> 100,> 100,> 100,> 100,> 100,> 100,–,38.2,–,–,–,–,–,–
COC(=O)CC(=O)C[P+](c1ccccc1)(c1ccccc1)c1ccccc1,> 218,> 218,215,> 218,> 218,201,> 218,> 218,> 218,–,> 218,–,–,–,–,–,–,–
N.N.N.O=[N+]([O-])[O-].O=[N+]([O-])[O-].O=[N+]([O-])[O-].O=[N+]([O-])[O-].[Co+3],–,> 100,> 100,> 100,> 100,–,–,–,> 100,> 100,–,–,> 100,> 100,> 100,> 100,> 100,–
CC1(C)CC(/C=C2/OC(=O)c3ccccc32)=C(C#N)C(=O)O1,> 100,> 100,> 100,> 100,> 100,> 100,–,> 100,> 100,> 100,–,–,–,–,–,–,–,–
CC1(Cl)C(=O)NC(=O)N(C2CC(N=[N+]=[N-])C(CO)O2)C1N=[N+]=[N-] (stereo unspecified),> 100,> 100,> 100,> 100,> 100,> 100,> 100,> 100,> 100,–,–,–,–,–,–,–,–,–
c1ccc(C2C3=C(Nc4ncnn42)c2ccccc2C3)cc1 (stereo unspecified),> 100,–,> 100,38,> 100,> 100,24.1,> 100,24.5,> 100,> 100,–,–,–,–,–,–,–
N=C1CSC2=NC3=C(CCC/C3=C\c3ccccc3)C(c3ccccc3)N12 (stereo unspecified),18.3,17,–,19.4,15.8,35.1,8.57,–,16.8,23.6,–,–,–,–,–,–,–,–
Cn1cc2ccccc2c1-c1nc(N)nc(F)n1,> 100,> 100,> 100,> 100,> 100,> 100,> 100,> 100,> 100,> 100,–,–,–,–,–,–,–,–
COC(=O)C(CCC#N)(CCC#N)C(=O)OC,> 100,> 100,> 100,–,> 100,> 100,> 100,–,> 100,–,–,–,–,–,–,–,–,–
COC(=O)CC(C(C(=O)OC)C(=O)OC)N1C(=O)OCC1c1ccccc1 (stereo unspecified),> 100,> 100,> 100,> 100,> 100,> 100,–,> 100,> 100,–,–,–,–,–,–,–,–,–
COc1cc(/C=C2/C(=O)N(C(=O)c3ccccc3O)N=C2C)cc(OC)c1OC,> 100,> 100,> 100,> 100,–,> 100,21.7,–,> 100,> 100,–,–,–,–,–,–,–,> 100
